Assays:
[1] = target: T1, Synaptic vesicular amine transporter (Rattus norvegicus, UniProt Q01827); experiment: Inhibition of [3H]DA uptake at VMAT2 in rat striatal synaptic vesicles
[2] = target: T1, Synaptic vesicular amine transporter; experiment: Inhibition of [3H]DTBZ binding to VMAT2 in rat synaptic vesicle membranes; format: cell membranes

T1 sequence (Q01827 whole entry): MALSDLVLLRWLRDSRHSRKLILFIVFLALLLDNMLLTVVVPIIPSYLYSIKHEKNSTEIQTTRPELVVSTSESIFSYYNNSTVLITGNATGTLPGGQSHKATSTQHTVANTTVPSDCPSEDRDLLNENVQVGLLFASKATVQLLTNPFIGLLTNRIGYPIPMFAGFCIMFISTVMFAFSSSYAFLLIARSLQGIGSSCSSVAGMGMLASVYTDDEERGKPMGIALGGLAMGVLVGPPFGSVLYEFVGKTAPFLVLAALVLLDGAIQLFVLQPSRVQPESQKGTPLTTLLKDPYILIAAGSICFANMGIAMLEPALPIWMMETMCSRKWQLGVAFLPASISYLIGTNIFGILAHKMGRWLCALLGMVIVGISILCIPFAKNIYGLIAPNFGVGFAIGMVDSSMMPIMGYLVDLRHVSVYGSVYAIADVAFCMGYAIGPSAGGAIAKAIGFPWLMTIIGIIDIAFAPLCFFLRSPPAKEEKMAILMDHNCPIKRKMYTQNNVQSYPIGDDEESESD

SMILES	Ki [1]	Ki [2]
OC[C@H](O)CN1[C@@H](CCc2ccccc2)CCC[C@H]1CCc1ccccc1	190 nM	560 nM
COc1cccc(CC[C@H]2CCC[C@@H](CCc3cccc(OC)c3)N2C[C@@H](O)CO)c1	140 nM	460 nM
N=C(N)NCCN1[C@@H](CCc2ccccc2)CCC[C@H]1CCc1ccccc1	680 nM	3490 nM
OC[C@@H](O)CN1[C@@H](CCc2cccc3ccccc23)CCC[C@H]1CCc1cccc2ccccc12	80 nM	130 nM
COc1ccccc1CC[C@H]1CCC[C@@H](CCc2ccccc2OC)N1C[C@@H](O)CO	490 nM	1040 nM
CN(C)N1[C@@H](CCc2ccccc2)CCC[C@H]1CCc1ccccc1	54 nM	> 100000 nM
OC[C@H](O)CN1[C@@H](CCc2ccc(-c3ccccc3)cc2)CCC[C@H]1CCc1ccc(-c2ccccc2)cc1	790 nM	> 100000 nM
OC[C@H](O)CN1[C@@H](CCc2cccc3ccccc23)CCC[C@H]1CCc1cccc2ccccc12	30 nM	310 nM
NCCN1[C@@H](CCc2ccccc2)CCC[C@H]1CCc1ccccc1	510 nM	5590 nM
c1ccc(CC[C@H]2CCC[C@@H](CCc3ccccc3)N2)cc1	44 nM	
COc1ccc(C[C@H]2CCC[C@@H](Cc3ccc(OC)cc3)N2C[C@@H](O)CO)cc1	570 nM	91000 nM
COc1cccc(CC[C@H]2CCC[C@@H](CCc3cccc(OC)c3)N2C[C@H](O)CO)c1	520 nM	2730 nM
OC[C@@H](O)CN1[C@@H](CCc2ccc(Cl)cc2Cl)CCC[C@H]1CCc1ccc(Cl)cc1Cl	90 nM	13900 nM
OCCN1[C@@H](CCc2ccccc2)CCC[C@H]1CCc1ccccc1	170 nM	1430 nM
COc1ccc(F)c(CC[C@H]2CCC[C@@H](CCc3cc(OC)ccc3F)N2C[C@@H](O)CO)c1	160 nM	210 nM
CN(C)CCN1[C@@H](CCc2ccccc2)CCC[C@H]1CCc1ccccc1	180 nM	9590 nM
OC[C@H](O)CN1[C@@H](CCc2ccc(Cl)cc2Cl)CCC[C@H]1CCc1ccc(Cl)cc1Cl	140 nM	10400 nM

SMILES	Ki [1]	Ki [2]
FC(F)Oc1ccc(CC[C@H]2CCC[C@@H](CCc3ccc(OC(F)F)cc3)N2)cc1	23 nM	1750 nM
OC[C@H](O)CN1[C@@H](CCc2ccc(OC(F)F)cc2)CCC[C@H]1CCc1ccc(OC(F)F)cc1	60 nM	530 nM
CCCN1[C@@H](CCc2ccccc2)CCC[C@H]1CCc1ccccc1	87 nM	
OC[C@H](O)CN1[C@@H](CCc2cccc(F)c2)CCC[C@H]1CCc1cccc(F)c1	190 nM	1000 nM
COC(=O)CN1[C@@H](CCc2ccccc2)CCC[C@H]1CCc1ccccc1	340 nM	4400 nM
OC[C@@H](O)CN1[C@@H](CCc2ccccc2)CCC[C@H]1CCc1ccccc1	860 nM	1280 nM
Fc1cc(F)cc(CC[C@H]2CCC[C@@H](CCc3cc(F)cc(F)c3)N2)c1	43 nM	5240 nM
COc1ccc(F)c(CC[C@H]2CCC[C@@H](CCc3cc(OC)ccc3F)N2)c1	39 nM	930 nM
OC[C@@H](O)CN1[C@@H](CCc2ccc3c(c2)OCO3)CCC[C@H]1CCc1ccc2c(c1)OCO2	760 nM	5610 nM
COc1ccc(C[C@H]2CCC[C@@H](Cc3ccc(OC)cc3)N2)cc1	48 nM	13100 nM
CCN1[C@@H](CCc2ccccc2)CCC[C@H]1CCc1ccccc1	60 nM	
OC[C@@H](O)CN1[C@@H](CCc2cccc(F)c2)CCC[C@H]1CCc1cccc(F)c1	1030 nM	1080 nM
OC[C@H](O)CN1[C@@H](CCc2ccc3c(c2)OCO3)CCC[C@H]1CCc1ccc2c(c1)OCO2	160 nM	1300 nM
N#CCN1[C@@H](CCc2ccccc2)CCC[C@H]1CCc1ccccc1	4490 nM	22600 nM
OC[C@@H](O)CN1[C@@H](CCc2ccc(-c3ccccc3)cc2)CCC[C@H]1CCc1ccc(-c2ccccc2)cc1	2250 nM	90200 nM
OC[C@H](O)CN1[C@@H](CCc2cc(F)cc(F)c2)CCC[C@H]1CCc1cc(F)cc(F)c1	104 nM	620 nM
COc1ccccc1CC[C@H]1CCC[C@@H](CCc2ccccc2OC)N1C[C@H](O)CO	790 nM	1870 nM

Reference: ChEMBL document CHEMBL3132792, “Exploring the effect of N-substitution in nor-lobelane on the interaction with VMAT2: discovery of a potential clinical candidate for treatment of methamphetamine abuse” (Medchemcomm, 2013)
